Results published in PubChem BioAssay (NCI).
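Assay format: 96-well plates, 48-hour exposure. GI50 is the concentration that inhibits growth by half. TGI: total growth inhibition.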

Experiments:
Test in all cases: NCI tumour cell line growth inhibition, 48 h
M19-MEL melanoma = test system: M19-MEL melanoma
HOP-18 NSCLC = test system: HOP-18 NSCLC
DMS 273 small cell lung = test system: DMS 273 small cell lung
KM20L2 colon = test system: KM20L2 colon
DMS 114 small cell lung = test system: DMS 114 small cell lung
DLD-1 colon = test system: DLD-1 colon
NCI/ADR-RES ovarian = test system: NCI/ADR-RES ovarian
XF 498 CNS = test system: XF 498 CNS
RXF-631 renal = test system: RXF-631 renal
786-0 renal = test system: 786-0 renal
DU-145 prostate = test system: DU-145 prostate
T-47D breast = test system: T-47D breast
HS 578T breast = test system: HS 578T breast
PC-3 prostate = test system: PC-3 prostate
BT-549 breast = test system: BT-549 breast

Compound	TGI (M19-MEL melanoma) [µM]	TGI (DMS 273 small cell lung) [µM]	TGI (KM20L2 colon) [µM]	TGI (DMS 114 small cell lung) [µM]	TGI (DLD-1 colon) [µM]	TGI (NCI/ADR-RES ovarian) [µM]	TGI (XF 498 CNS) [µM]	TGI (786-0 renal) [µM]	TGI (DU-145 prostate) [µM]	TGI (T-47D breast) [µM]	TGI (HS 578T breast) [µM]	TGI (PC-3 prostate) [µM]	TGI (BT-549 breast) [µM]	also measured
Cc1cc(C)n(-c2nsc3ccccc23)n1	> 100	> 100	> 100	> 100	–	–	–	–	–	–	–	–	–	TGI (HOP-18 NSCLC): > 100 µM
CSc1nc(NC2OCC(O)C(O)C2O)c(N)c(=O)[nH]1 (centres undefined)	> 100	> 100	> 100	> 100	> 100	> 100	–	–	–	–	–	–	–	TGI (HOP-18 NSCLC): > 100 µM
Brc1ccc(C2CC(c3cccc4ccccc34)=Nc3ccccc3S2)cc1 (centres undefined)	> 100	> 100	> 100	–	> 100	–	> 100	–	–	–	–	–	–	–
C/C(N=NS(=O)(=O)c1ccccc1)=C1\C=CC=CN1O	> 100	> 100	> 100	> 100	> 100	–	> 100	> 100	–	–	–	–	–	TGI (HOP-18 NSCLC): > 100 µM; TGI (RXF-631 renal): > 100 µM
CC(C)(C)[Si](C)(C)OCC1OC(n2cnc3c(N)ncnc32)CC1O (centres undefined)	–	–	–	–	–	> 100	–	–	> 100	> 100	> 100	> 100	> 100	–
CC1CCC2(O)C3(C)CC4(O)OC2(C1O)C1(O)C3(O)C(OC(=O)c2ccc[nH]2)C(O)(C(C)C)C41C (centres undefined)	–	–	–	–	–	> 100	–	> 100	> 100	> 100	> 100	> 100	> 100	–
c1coc(CNc2ncnc3[nH]ncc23)c1	> 100	> 100	> 100	> 100	> 100	–	> 100	> 100	–	–	–	–	–	TGI (RXF-631 renal): > 100 µM
CC(=O)c1ccc2c(c1)c1c(C)c3c[n+](C)ccc3c(C)c1n2C	23.7	18.8	> 100	25.6	> 100	> 100	17.1	–	–	–	–	–	–	TGI (HOP-18 NSCLC): 75.9 µM
NCCCOc1ccc([N+](=O)[O-])cc1Cl	> 100	> 100	> 100	> 100	> 100	–	> 100	> 100	–	–	–	–	–	–
Fc1ccc(C2CC(c3cccc(Nc4ccncc4)c3)=NN2c2ccc(Cl)cc2)cc1 (centres undefined)	–	–	–	–	–	3.48	–	–	3.21	–	3.63	3.19	4.26	GI50 (DU-145 prostate): 1.78 µM; GI50 (HS 578T breast): 1.74 µM; GI50 (PC-3 prostate): 1.63 µM; GI50 (BT-549 breast): 2.04 µM; GI50 (NCI/ADR-RES ovarian): 1.82 µM
Cc1cc2c(cc1C)OC(=O)CC2	–	–	–	–	–	> 100	–	> 100	> 100	> 100	> 100	> 100	> 100	–
OCCOCCN1CCN(CCCN2c3ccccc3Sc3ccc(C(F)(F)F)cc32)CC1	–	–	–	–	–	–	–	31.3	27.6	2.48	38.9	29.6	35.4	–
N#CN=[N+]([O-])c1ccc(C(=O)O)cc1	–	–	–	–	–	39.9	–	–	–	–	61.3	31.2	31.4	–
CC(=O)OCC1=C(C(=O)O)N2C(=O)C(NC(=O)CSc3ccncc3)C2SC1 (centres undefined)	–	–	–	–	–	> 100	–	> 100	> 100	> 100	> 100	> 100	> 100	–
CCN(CC)CCNc1ccc2nnn3c4ccc(C)cc4c(=O)c1c23	27.8	–	19.3	21.3	25.9	–	–	18.6	–	–	–	–	–	TGI (RXF-631 renal): 18.4 µM
O=C1Nc2ccccc2C1=Nc1cccc2ncccc12	–	–	–	–	–	> 100	–	> 100	> 100	> 100	> 100	> 100	> 100	–
